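Values below derive from 48-hour exposures of cells grown in 96-well plates, with endpoints linearly interpolated between the two concentrations bracketing the appropriate inhibition level. Abbreviation: GI50, concentration required for 50% inhibition of growth.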 Activity calls are given as the source filed them. Rule as the data show it: active = GI50 up to about 1.1 µM and inactive = higher.
How the values were obtained:
Experiment in all cases: NCI tumour cell line growth inhibition, 48 h
NCI-H23 = test system: NCI-H23
HL-60 = test system: HL-60
DLD-1 = test system: DLD-1
HT-29 = test system: HT-29
MOLT-4 = test system: MOLT-4
NCI-H460 = test system: NCI-H460
HCT-116 = test system: HCT-116
HCC 2998 = test system: HCC 2998
TK-10 = test system: TK-10
K562 = test system: K562
OVCAR-8 = test system: OVCAR-8
SK-MEL-5 = test system: SK-MEL-5
SF-295 = test system: SF-295
HOP-62 = test system: HOP-62
NCI-H522 = test system: NCI-H522
NCI-H226 = test system: NCI-H226
MDA-MB-231 = test system: MDA-MB-231
OVCAR-3 = test system: OVCAR-3
T47D = test system: T47D
BT-549 = test system: BT-549

Measured: GI50

CCCCNC(=S)OCCC(C)CCCC(C)C (stereo not drawn)
inactive: NCI-H23 > 100 µM | HL-60 > 100 µM | DLD-1 > 100 µM | HT-29 > 100 µM | MOLT-4 > 100 µM | NCI-H460 > 100 µM | HCT-116 > 100 µM | HCC 2998 > 100 µM | TK-10 > 100 µM | K562 > 100 µM | OVCAR-8 > 100 µM | SK-MEL-5 > 100 µM | SF-295 > 100 µM | HOP-62 > 100 µM

CN(C)C1=NC2=S(SC(Nc3ccccc3)=N2)S1 (stereo not drawn)
inactive: NCI-H23 28.2 µM | HL-60 10 µM | DLD-1 27.2 µM | HT-29 33.6 µM | MOLT-4 10.3 µM | NCI-H460 36.1 µM | HCT-116 10.5 µM | HCC 2998 21 µM | TK-10 27.9 µM | K562 6.62 µM | OVCAR-8 26.6 µM | SK-MEL-5 5.87 µM | SF-295 24.5 µM | NCI-H522 10.3 µM | NCI-H226 22.2 µM | HOP-62 24.2 µM

CCN(CC)CC(=O)NC1c2ccccc2Oc2ccccc21
inactive: NCI-H23 > 100 µM | HL-60 > 100 µM | DLD-1 > 100 µM | HT-29 > 100 µM | MOLT-4 > 100 µM | NCI-H460 > 100 µM | HCT-116 > 100 µM | HCC 2998 > 100 µM | TK-10 > 100 µM | K562 > 100 µM | OVCAR-8 > 100 µM | SK-MEL-5 > 100 µM | NCI-H226 > 100 µM | HOP-62 > 100 µM

CCOC(=O)C(/C(=N\NC(=O)OC)C(=O)Nc1cc(OC)ccc1OC)c1cnc2ccccc2n1 (stereo not drawn)
inactive: NCI-H23 > 100 µM | HL-60 69.2 µM | DLD-1 > 100 µM | HT-29 > 100 µM | NCI-H460 > 100 µM | HCT-116 > 100 µM | HCC 2998 > 100 µM | TK-10 > 100 µM | K562 > 100 µM | OVCAR-8 > 100 µM | SK-MEL-5 > 100 µM | SF-295 > 100 µM | NCI-H522 > 100 µM | NCI-H226 > 100 µM | HOP-62 > 100 µM

CCOC(=O)/C=C\[C@H]1OC(C)(C)O[C@H]1[C@H](O)[C@H]1COC(C)(C)O1
inactive: NCI-H23 21.7 µM | HL-60 22.8 µM | MDA-MB-231 17.6 µM | HT-29 20.7 µM | MOLT-4 19.2 µM | NCI-H460 27 µM | OVCAR-3 17.4 µM | HCT-116 19.7 µM | HCC 2998 11.3 µM | T47D 20.5 µM | TK-10 16.1 µM | K562 10.4 µM | OVCAR-8 29.8 µM | BT-549 22 µM | SK-MEL-5 18.2 µM | SF-295 > 100 µM | NCI-H522 13.8 µM | NCI-H226 > 100 µM | HOP-62 66.4 µM

Cc1ccc(S(=O)(=O)N(CC(O)COc2ccccc2)c2ccccc2Cl)cc1 (stereo not drawn)
inactive: NCI-H23 14.7 µM | HL-60 24.6 µM | MDA-MB-231 14.6 µM | HT-29 17.5 µM | MOLT-4 19.8 µM | NCI-H460 17 µM | OVCAR-3 19 µM | HCT-116 14.6 µM | HCC 2998 19.5 µM | T47D 24.9 µM | TK-10 14.2 µM | K562 11.6 µM | OVCAR-8 16.3 µM | BT-549 17.1 µM | SK-MEL-5 14.7 µM | SF-295 24.3 µM | NCI-H522 12.4 µM | NCI-H226 14.9 µM | HOP-62 20 µM

CC1(C)[C@@H]2C[C@H]1c1cnc(-c3ccccn3)cc1C2[C@@H]1c2cc(-c3ccccn3)ncc2[C@@H]2C[C@H]1C2(C)C (stereo partly drawn)
inactive: NCI-H23 41.2 µM | HL-60 36.4 µM | MDA-MB-231 > 100 µM | HT-29 45.3 µM | MOLT-4 44 µM | NCI-H460 2.77 µM | OVCAR-3 43.6 µM | HCT-116 49 µM | HCC 2998 45.7 µM | T47D 55.1 µM | TK-10 16.6 µM | K562 22.6 µM | OVCAR-8 46.8 µM | BT-549 > 100 µM | SK-MEL-5 49.7 µM | SF-295 34.5 µM | NCI-H522 25.3 µM | NCI-H226 28.4 µM | HOP-62 39.1 µM

Cc1ccccc1-n1c(=O)c2ncn(CCCl)c2n(-c2ccccc2C)c1=S
inactive: NCI-H23 > 100 µM | HL-60 > 100 µM | MDA-MB-231 > 100 µM | HT-29 > 100 µM | MOLT-4 > 100 µM | NCI-H460 > 100 µM | OVCAR-3 > 100 µM | HCT-116 > 100 µM | HCC 2998 > 100 µM | T47D > 100 µM | TK-10 > 100 µM | K562 > 100 µM | OVCAR-8 > 100 µM | BT-549 > 100 µM | SK-MEL-5 > 100 µM | SF-295 > 100 µM | NCI-H522 38.5 µM | NCI-H226 > 100 µM | HOP-62 > 100 µM

COc1ccc(C2(CC(C)O)SCCCS2)cc1 (stereo not drawn)
inactive: NCI-H23 > 100 µM | HL-60 37.2 µM | MDA-MB-231 > 100 µM | HT-29 > 100 µM | MOLT-4 42 µM | NCI-H460 > 100 µM | OVCAR-3 > 100 µM | HCT-116 > 100 µM | HCC 2998 > 100 µM | T47D > 100 µM | TK-10 > 100 µM | K562 > 100 µM | OVCAR-8 > 100 µM | BT-549 > 100 µM | SK-MEL-5 > 100 µM | SF-295 > 100 µM | NCI-H522 > 100 µM | NCI-H226 > 100 µM | HOP-62 > 100 µM

O=C(CN1CCN(c2cccc(Cl)c2)CC1)N1CCc2c([nH]c3ccccc23)C1c1cccnc1 (stereo not drawn)
inactive: NCI-H23 16.4 µM | HL-60 2.38 µM | DLD-1 7.31 µM | HT-29 4 µM | MOLT-4 2.54 µM | NCI-H460 4.4 µM | OVCAR-3 15.5 µM | HCT-116 4.5 µM | HCC 2998 5.24 µM | TK-10 26.2 µM | K562 3.03 µM | OVCAR-8 19.4 µM | SK-MEL-5 11.9 µM | SF-295 8.53 µM | NCI-H522 12.2 µM | HOP-62 14.7 µM

COC(=O)N/N=C/c1oc(-c2cccc([N+](=O)[O-])c2)c(-c2cccc([N+](=O)[O-])c2)c1[N+](=O)[O-]
inactive: NCI-H23 > 100 µM | HL-60 19.3 µM | DLD-1 > 100 µM | HT-29 > 100 µM | MOLT-4 24.2 µM | NCI-H460 > 100 µM | OVCAR-3 > 100 µM | HCT-116 > 100 µM | HCC 2998 > 100 µM | TK-10 > 100 µM | K562 26.5 µM | OVCAR-8 > 100 µM | SK-MEL-5 > 100 µM | SF-295 > 100 µM | NCI-H522 60.8 µM | HOP-62 > 100 µM

O=[N+]([O-])c1cccc(/C=N\NS(=O)(=O)c2ccc(Cl)cc2)c1O
inactive: NCI-H23 44.3 µM | HL-60 46.9 µM | DLD-1 55.5 µM | HT-29 > 100 µM | MOLT-4 47.5 µM | NCI-H460 82.8 µM | OVCAR-3 65.8 µM | HCT-116 50.4 µM | HCC 2998 > 100 µM | TK-10 > 100 µM | K562 60.1 µM | OVCAR-8 79.4 µM | SK-MEL-5 73.1 µM | SF-295 > 100 µM | NCI-H522 31.8 µM | HOP-62 > 100 µM

COc1ccc(CNc2nc3ccccc3nc2C(=O)O)cc1OC
inactive: NCI-H23 > 100 µM | HL-60 > 100 µM | MDA-MB-231 > 100 µM | HT-29 > 100 µM | MOLT-4 > 100 µM | NCI-H460 > 100 µM | OVCAR-3 > 100 µM | HCT-116 > 100 µM | HCC 2998 > 100 µM | T47D > 100 µM | TK-10 > 100 µM | K562 > 100 µM | OVCAR-8 > 100 µM | BT-549 30.7 µM | SK-MEL-5 > 100 µM | SF-295 > 100 µM | NCI-H522 > 100 µM | NCI-H226 > 100 µM | HOP-62 > 100 µM

O=C1c2ccccc2-c2c1c1ccccc1c(=O)n2-c1ccccc1
inactive: NCI-H23 11.6 µM | HL-60 > 33 µM | MDA-MB-231 9.66 µM | HT-29 > 31.5 µM | MOLT-4 > 100 µM | NCI-H460 6.56 µM | OVCAR-3 14.4 µM | HCT-116 4.17 µM | HCC 2998 66.4 µM | T47D 15.8 µM | TK-10 11.7 µM | K562 > 60.1 µM | OVCAR-8 5.79 µM | BT-549 14.4 µM | SK-MEL-5 9.66 µM | SF-295 10.1 µM | NCI-H522 18.2 µM | NCI-H226 12.2 µM | HOP-62 4.26 µM

COc1cccc2c1-c1ccccc1[C@H](Nc1ccccc1)[C@@]2(C)O
inactive: NCI-H23 7.67 µM | HL-60 5.42 µM | MDA-MB-231 10.3 µM | HT-29 3.78 µM | MOLT-4 7.28 µM | NCI-H460 3.91 µM | OVCAR-3 2.7 µM | HCT-116 4.11 µM | HCC 2998 7.26 µM | T47D 8.85 µM | TK-10 8.87 µM | K562 3.31 µM | OVCAR-8 10.4 µM | BT-549 8.41 µM | SK-MEL-5 3.62 µM | SF-295 4.13 µM | NCI-H522 2.37 µM | NCI-H226 3.4 µM | HOP-62 3.85 µM

O=C1Nc2ccccc2/C1=C1/Nc2ccccc2/C1=N\OCCNCC(O)C(O)C(O)C(O)CO (stereo not drawn)
inactive: NCI-H23 10.4 µM | HL-60 5.5 µM | MDA-MB-231 11.2 µM | HT-29 16.9 µM | MOLT-4 12.9 µM | NCI-H460 18.1 µM | OVCAR-3 11.6 µM | HCT-116 13.4 µM | HCC 2998 11.8 µM | T47D 6.7 µM | TK-10 35.8 µM | K562 16.3 µM | OVCAR-8 18.5 µM | BT-549 13.9 µM | SK-MEL-5 8.36 µM | SF-295 30.7 µM | NCI-H522 13.4 µM | NCI-H226 13.8 µM | HOP-62 11.7 µM
